Test results published in patent US10010561B2, “Method of treating cancer using high efficiency self-illuminative nanocomplexes and method of manufacturing the same” (Research & Business Foundation Sungkyunkwan University, priority 2014, dated 2018).
{SH} = thiol linker

B1: m-Rluc8: modified self-illuminative protein of SEQ. ID. NO: 1, wild-type Renilla luciferase mutated at 8 sites (protein)
chain: MASKVYDPEQRKRMITGPQWWARCKQMNVLDSFINYYDSEKHAENAVIFLHGNATSSYLWRHVVPHIEPVARCIIPDLIGMGKSGKSGNGSYRLLDHYKYLTAWFELLNLPKKIIFVGHDWGAALAFHYAYEHQDRIKAIVHMESVVDVIESWDEWPDIEEDIALIKSEEGEKMVLENNFFVETVLPSKIMRKLEPEEFAAYLEPFKEKGEVRRPTLSWPREIPLVKGGKPDVVQIVRNYNAYLRASDDLPKLFIESDPGFFSNAIVEGAKKFPNTEFVKVKGLHFLQEDAPDEMGKYIKSFVERVLKNEQ
modifications: Renilla luciferase
notes: ID; NO: 1, wild-type Renilla luciferase mutated at 8 sites

How the values were obtained:
[1] = doxorubicin capture in linear nucleic acid, doxorubicin autofluorescence; type: physicochemical; conditions: room temperature, 24 hours; linear nucleic acid:doxorubicin 1:1 to 1:20; FIG. 5
Method: To contain doxorubicin in a new nucleic acid-based functional anticancer drug, linear nucleic acids represented by SEQ. ID. NO: 2 ([NT]) and SEQ. ID. NO: 3 (5'-/thiol/[NT]3') were used. To prepare a doxorubicin-binding linear nucleic acid, the linear nucleic acid and doxorubicin were mixed with various concentrations (linear nucleic acid:doxorubicin=1:1 to 1:20) and reacted at room temperature for 24 hours, and autofluorescence of the doxorubicin was detected.

[2] = luminescence activity of m-Rluc8 compared with wild-type luciferase; type: biochemical; conditions: versus wild-type luciferase purified by the same method; FIG. 2
Excerpt: To obtain a high efficiency self-luminescent light source, a modified self-illuminative protein (m-Rluc8) in which artificial mutation occurred on an amino acid sequence of a wild-type luciferase was expressed in E. coli and purified. That is, an expression vector (m-Rluc8_pPAL7) into which the modified self-illuminative protein (m-Rluc8) consisting of an amino acid sequence (SEQ. ID. NO: 1) shown in FIG. 1 was inserted was manufactured, transformed into and expressed in E. coli BL21 strain cells and then purified, thereby obtaining a high purity modified self-illuminative protein (m-Rluc8).

Row | Molecule | maximum doxorubicin binding to 1 μM linear nucleic acid [1] | luminescence activity relative to wild-type luciferase [2]
1 | linear nucleic acid (DNA GTCGCAGGCACATCAGTACAGCCAGATCCGTACCTACTCG; DNA, 5' {SH}, backbone and methylation of C not given here; conjugated to gold) | 10 µM | 
2 | B1 |  | more than 5.65 fold
